According to patent US20240391948A1, “NOVEL COMPOUND THAT INHIBITS TNF-ALPHA GENERATION AND INFLAMMASOME ACTIVITY AND PREPARATION METHOD THEREFOR” (SHAPERON INC., priority 2021, published 2024):
pIC50: −log10 of the molar value.

How the values were obtained:
Type in all cases: cell-based
[1] = tested on: U937 cells (human monocytic cell line); assay: BzATP-induced IL-1β secretion inhibition in PMA-differentiated U937 cells; conditions: U-937, U937 cells differentiated with PMA, read-out: IL-1β production inhibition grade (IC50)
How it was run: (§1)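 Inhibition is given as IC50 (μM) in A-D bands, using distinct thresholds for TNF-α and for IL-1β. Secretion followed Pam2CSK4 stimulation (TNF-α) or BzATP stimulation (IL-1β) of compound-pretreated, PMA-differentiated U937 macrophages.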

[2] = tested on: J774A.1 (Mouse BALB/c monocyte macrophage cell line) cells; assay: LPS-induced TNF-α secretion inhibition in J774A.1 cells; conditions: J774.A1, 1 μM compound, graded compared to taurodeoxycholic acid (positive control), read-out: TNF-α production inhibition grade
How it was run: (§2)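 Grades (A >100%, B 50–100%, C 20–50%, D <20%) express cytokine suppression by 1 μM compound relative to taurodeoxycholic acid. LPS-induced TNF-α and LPS+ATP-induced IL-1β secretion were measured in murine J774A.1 macrophage cells.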

[3] = tested on: U937 cells (human monocytic cell line); assay: Pam2CSK4-induced TNF-α secretion inhibition in PMA-differentiated U937 cells; conditions: U-937, U937 cells differentiated with PMA, read-out: TNF-α production inhibition grade (IC50)
How it was run: as §1

[4] = tested on: J774A.1 (Mouse BALB/c monocyte macrophage cell line) cells; assay: LPS+ATP-induced IL-1β secretion inhibition in J774A.1 cells; conditions: J774.A1, 1 μM compound, graded compared to taurodeoxycholic acid (positive control), read-out: IL-1β production inhibition grade
How it was run: as §2

| SMILES | pIC50 [1] | inhibition at 1 µM [2] | pIC50 [3] | inhibition at 1 µM [4] |
| --- | --- | --- | --- | --- |
| CC[C@H]1[C@@H](O)[C@@H]2[C@H](CC[C@]3(C)[C@@H]([C@H](C)CCC(=O)N[C@H]4CCCC[C@H]4S(=O)(=O)O)CC[C@@H]23)[C@@]2(C)CC[C@@H](O)C[C@@H]12 [NC40027] | ≤ 6.70 | < 20% | ≤ 5.70 | 50 to 100% |
| CC[C@H]1[C@@H](O)[C@@H]2[C@H](CC[C@]3(C)[C@@H]([C@H](C)CCC(=O)N4CCC[C@@H](S(=O)(=O)O)C4)CC[C@@H]23)[C@@]2(C)CC[C@@H](O)C[C@@H]12 [NC40010] | ≤ 6.70 | 50 to 100% | 6.00 to 6.30 | < 20% |
| C[C@H](CCC(=O)N[C@@H](CS(=O)(=O)O)c1ccccc1)[C@H]1CC[C@H]2[C@@H]3CC[C@@H]4C[C@H](O)CC[C@]4(C)[C@H]3C[C@H](O)[C@]12C [NC10035] | ≤ 6.70 | < 20% | 6.00 to 6.30 | 50 to 100% |
| CC[C@H]1[C@@H](O)[C@@H]2[C@H](CC[C@]3(C)[C@@H]([C@H](C)CCC(=O)N(CCS(=O)(=O)O)C4CCOCC4)CC[C@@H]23)[C@@]2(C)CC[C@@H](O)C[C@@H]12 [NC40008] | > 7.30 | > 100% | > 6.30 | > 100% |
| C[C@H](CCC(=O)N(CCO)CCS(=O)(=O)O)[C@H]1CC[C@H]2[C@@H]3[C@H](O)C[C@@H]4C[C@H](O)CC[C@]4(C)[C@H]3C[C@H](O)[C@]12C [NC20006] | > 7.30 | < 20% | 5.70 to 6.00 | > 100% |
| C[C@H](CCC(=O)N[C@@H](C)CS(=O)(=O)O)[C@H]1CC[C@H]2[C@@H]3CC[C@@H]4CC(=O)CC[C@]4(C)[C@H]3CC[C@]12C [NC30028] | ≤ 6.70 | < 20% | 6.00 to 6.30 | < 20% |
| C[C@H](CCC(=O)N1CCN(CCS(=O)(=O)O)CC1)[C@H]1CC[C@H]2[C@@H]3CC[C@@H]4C[C@H](O)CC[C@]4(C)[C@H]3C[C@H](O)[C@]12C [NC10010] | > 7.30 | > 100% | > 6.30 | > 100% |
| CC[C@H]1[C@@H](O)[C@@H]2[C@H](CC[C@]3(C)[C@@H]([C@H](C)CCC(=O)N4CC[C@H](S(=O)(=O)O)C4)CC[C@@H]23)[C@@]2(C)CC[C@@H](O)C[C@@H]12 [NC40033] | > 7.30 | > 100% | > 6.30 | > 100% |
| CC(C)N(CCS(=O)(=O)O)C(=O)CC[C@@H](C)[C@H]1CC[C@H]2[C@@H]3CC[C@@H]4C[C@H](O)CC[C@]4(C)[C@H]3CC[C@]12C [NC10058] | > 7.30 | < 20% | ≤ 5.70 | > 100% |
| C[C@H](CCC(=O)N[C@H](Cc1ccccc1)CS(=O)(=O)O)[C@H]1CC[C@H]2[C@@H]3CC[C@@H]4C[C@H](O)CC[C@]4(C)[C@H]3CC[C@]12C [NC10071] | > 7.30 | < 20% | > 6.30 | > 100% |
| CC[C@H]1[C@@H](O)[C@@H]2[C@H](CC[C@]3(C)[C@@H]([C@H](C)CCC(=O)N(CCN(C)C)CCS(=O)(=O)O)CC[C@@H]23)[C@@]2(C)CC[C@@H](O)C[C@@H]12 [NC40035] | 7.00 to 7.30 | < 20% | > 6.30 | > 100% |
| C[C@H](CS(=O)(=O)O)NC(=O)CC[C@@H](C)[C@H]1CC[C@H]2[C@@H]3CC[C@@H]4CC(=O)CC[C@]4(C)[C@H]3CC[C@]12C [NC30029] | ≤ 6.70 | < 20% | 6.00 to 6.30 | 20 to 50% |
| CC[C@H]1[C@@H](O)[C@@H]2[C@H](C[C@H](O)[C@]3(C)[C@@H]([C@H](C)CCC(=O)N[C@H](CS(=O)(=O)O)C(C)C)CC[C@@H]23)[C@@]2(C)CC[C@@H](O)C[C@@H]12 [NC50016] | 7.00 to 7.30 | < 20% | 6.00 to 6.30 | > 100% |
| C[C@H](CCC(=O)N(CCS(=O)(=O)O)C1CCCCC1)[C@H]1CC[C@H]2[C@@H]3CC[C@@H]4C[C@H](O)CC[C@]4(C)[C@H]3CC[C@]12C [NC10016] | > 7.30 | > 100% | > 6.30 | > 100% |
| CC(C)N(CCS(=O)(=O)O)C(=O)CC[C@@H](C)[C@H]1CC[C@H]2[C@@H]3[C@H](O)C[C@@H]4C[C@H](O)CC[C@]4(C)[C@H]3C[C@H](O)[C@]12C [NC20007] | > 7.30 | < 20% | 5.70 to 6.00 | > 100% |
| C[C@H](CCC(=O)NC[C@@H](C)S(=O)(=O)O)[C@H]1CC[C@H]2[C@@H]3CC[C@@H]4C[C@H](O)CC[C@]4(C)[C@H]3CC[C@]12C [NC10079] | > 7.30 | 20 to 50% | 6.00 to 6.30 | > 100% |
| CC[C@H]1[C@@H](O)[C@@H]2[C@H](C[C@H](O)[C@]3(C)[C@@H]([C@H](C)CCC(=O)N(CCO)CCS(=O)(=O)O)CC[C@@H]23)[C@@]2(C)CC[C@@H](O)C[C@@H]12 [NC50006] | > 7.30 | < 20% | ≤ 5.70 | < 20% |
| C[C@H](CCC(=O)N(CCS(=O)(=O)O)C1CCOCC1)[C@H]1CC[C@H]2[C@@H]3CC[C@@H]4C[C@H](O)CC[C@]4(C)[C@H]3CC[C@]12C [NC10059] | > 7.30 | < 20% | 5.70 to 6.00 | > 100% |
| C[C@H](CCC(=O)NCCN1CCOCC1)[C@H]1CC[C@H]2[C@@H]3CC[C@@H]4C[C@H](O)CC[C@]4(C)[C@H]3C[C@H](O)[C@]12C [NC10018] | 7.00 to 7.30 | 50 to 100% | ≤ 5.70 | 20 to 50% |
| C[C@H](CCC(=O)N[C@H](CO)CS(=O)(=O)O)[C@H]1CC[C@H]2[C@@H]3CC[C@@H]4C[C@H](O)CC[C@]4(C)[C@H]3CC[C@]12C [NC10081] | > 7.30 | > 100% | 6.00 to 6.30 | > 100% |
| C[C@H](CCC(=O)N[C@H]1CCCC[C@H]1S(=O)(=O)O)[C@H]1CC[C@H]2[C@@H]3CC[C@@H]4C[C@H](O)CC[C@]4(C)[C@H]3CC[C@]12C [NC10083] | > 7.30 | > 100% | 6.00 to 6.30 | > 100% |
| C[C@H](CCC(=O)N[C@H](CS(=O)(=O)O)c1ccccc1)[C@H]1CC[C@H]2[C@@H]3CC[C@@H]4C[C@H](O)CC[C@]4(C)[C@H]3CC[C@]12C [NC10074] | 7.00 to 7.30 | < 20% | > 6.30 | > 100% |
| CC[C@H]1[C@@H](O)[C@@H]2[C@H](CC[C@]3(C)[C@@H]([C@H](C)CCC(=O)N(CCS(=O)(=O)O)C(C)C)CC[C@@H]23)[C@@]2(C)CC[C@@H](O)C[C@@H]12 [NC40007] | ≤ 6.70 | < 20% | 5.70 to 6.00 | 50 to 100% |
| C[C@H](CCC(=O)NCCOS(=O)(=O)O)[C@H]1CC[C@H]2[C@@H]3CC[C@@H]4C[C@H](O)CC[C@]4(C)[C@H]3C[C@H](O)[C@]12C [NC10007] | > 7.30 | 50 to 100% | ≤ 5.70 | 50 to 100% |
| C[C@H](CCC(=O)N1CCC[C@@H](S(=O)(=O)O)C1)[C@H]1CC[C@H]2[C@@H]3CC[C@@H]4C[C@H](O)CC[C@]4(C)[C@H]3CC[C@]12C [NC10061] | 6.70 to 7.00 | < 20% | 6.00 to 6.30 | > 100% |
